Measured values: ChEMBL document CHEMBL2331210, “New 2-benzylsulfanyl-nicotinic acid based 1,3,4-oxadiazoles: their synthesis and biological evaluation” (2013)
In brackets after ≈: the same amount, converted by molar mass.

Columns and labels:
Format in all cases: functional
Aspergillus clavatus = assay: Antimicrobial activity against Aspergillus clavatus MTCC 1323 assessed as growth inhibition measured after overnight incubation by broth dilution method
[1] = test system: Mycobacterium tuberculosis; assay: Antitubercular activity against Mycobacterium tuberculosis H37Rv assessed as growth inhibition after 12 to 28 days by L.J. agar MIC method; conditions: for MIC: Mycobacterium tuberculosis, H37Rv
Pseudomonas aeruginosa = assay: Antimicrobial activity against Pseudomonas aeruginosa MTCC 2488 assessed as growth inhibition measured after overnight incubation by broth dilution method
Candida albicans = assay: Antimicrobial activity against Candida albicans MTCC 227 assessed as growth inhibition measured after overnight incubation by broth dilution method
Aspergillus niger = assay: Antimicrobial activity against Aspergillus niger MTCC 282 assessed as growth inhibition measured after overnight incubation by broth dilution method
Staphylococcus aureus = assay: Antimicrobial activity against Staphylococcus aureus MTCC 96 assessed as growth inhibition measured after overnight incubation by broth dilution method
Escherichia coli = assay: Antimicrobial activity against Escherichia coli MTCC 443 assessed as growth inhibition measured after overnight incubation by broth dilution method
Streptococcus pyogenes = assay: Antimicrobial activity against Streptococcus pyogenes MTCC 442 assessed as growth inhibition measured after overnight incubation by broth dilution method

| SMILES | MIC (Aspergillus clavatus) | growth inhibition (GI) [1] | MIC [1] | MIC (Pseudomonas aeruginosa) | MIC (Candida albicans) | MIC (Aspergillus niger) | MIC (Staphylococcus aureus) | MIC (Escherichia coli) | MIC (Streptococcus pyogenes) |
| --- | --- | --- | --- | --- | --- | --- | --- | --- | --- |
| N#CSc1ccc2nc(NC(=O)CSc3nnc(-c4cccnc4SCc4ccccc4)o3)sc2c1 | 250 µg/mL (≈ 456 µM) | 99% | 50 µg/mL (≈ 91.1 µM) | 62.5 µg/mL (≈ 114 µM) | 500 µg/mL (≈ 911 µM) | 100 µg/mL (≈ 182 µM) | 250 µg/mL (≈ 456 µM) | 250 µg/mL (≈ 456 µM) | 12.5 µg/mL (≈ 22.8 µM) |
| O=C(CCl)Nn1cnnc1 | > 1000 µg/mL | 90% | 1000 µg/mL (≈ 6230 µM) | 250 µg/mL (≈ 1560 µM) | 1000 µg/mL (≈ 6230 µM) | > 1000 µg/mL | 500 µg/mL (≈ 3110 µM) | 250 µg/mL (≈ 1560 µM) | 250 µg/mL (≈ 1560 µM) |
| c1ccc(CSc2ncccc2-c2nnc(SCC3CO3)o2)cc1 (stereo unspecified) | 1000 µg/mL (≈ 2800 µM) | 97% | 500 µg/mL (≈ 1400 µM) | 125 µg/mL (≈ 350 µM) | 500 µg/mL (≈ 1400 µM) | 1000 µg/mL (≈ 2800 µM) | 62.5 µg/mL (≈ 175 µM) | 62.5 µg/mL (≈ 175 µM) | 250 µg/mL (≈ 699 µM) |
| CN1CCN(C(=O)CCl)CC1 | 500 µg/mL (≈ 2830 µM) | 99% | 250 µg/mL (≈ 1420 µM) | 100 µg/mL (≈ 566 µM) | 1000 µg/mL (≈ 5660 µM) | > 1000 µg/mL | 250 µg/mL (≈ 1420 µM) | 125 µg/mL (≈ 708 µM) | 100 µg/mL (≈ 566 µM) |
